From patent publication US20170348269A1, “TREATMENT OF UREA CYCLE DISORDERS IN NEONATES AND INFANTS” (Horizon Therapeutics, LLC, priority 2016, published 2017)
Values joined by “and” are separate entries in the source; they are usually repeats but may differ in a detail not shown here. Equal entries are not always repeated.

How the values were obtained:
[1] = HPN-100-012 switch-over study, pharmacokinetics of HPN-100 and NaPBA in pediatric UCD patients; assay type: in vivo, human; conditions: HPN-100-012 (N = 15), TID with meals
Experimental: HPN-100-012, an open-label, fixed sequence, switch-over study of the safety, PK and efficacy of HPN-100 compared to NaPBA in patients with UCDs, with a 12-month safety extension part. The switch-over part of the study and the 12-month safety extension are complete. The switch-over part was conducted at 7 U.S. centers and enrolled 15 pediatric UCD patients between 29 days and <6 year of age, all of whom completed the study. After review of all the safety data by the DSMB, 8 additional subjects were enrolled in the study after the switch-over phase was completed. The primary efficacy endpoint was the 24-hour AUC (area under the curve) for blood ammonia on Day 1 compared with Day 10.
The pharmacokinetics of the short term studies can be summarized as follows. Mean exposure levels of HPN-100 metabolites PBA, PAA, and PAGN after doses of HPN-100 and NaPBA with meals (TID) in pediatric (29 days to 17 years of age) UCD patients in HPN-100-005 and HPN-100-012 studies are summarized below. The mean exposure to PBA, the parent metabolite, and mean exposure to PAGN, the terminal metabolite, show no systematic variation across age groups, while PAA exposure tended to decrease with increasing age, a finding consistent with those from population PK modeling which indicate that the rate of clearance/metabolism of PAA varies directly with body size. While systemic metabolite exposure, assessed as peak plasma concentration (Cmax) or AUC, is generally similar for HPN-100 and NaPBA, the minimum concentration (Cmin-ss) was higher—and/or percent-fluctuation less—for plasma PAGN, a finding consistent with slower gastrointestinal absorption of PBA when administered orally as HPN-100.

[2] = system: pancreatic lipase-related protein; conditions: cited from earlier work
[3] = system: venous ammonia in pediatric patients with UCDs; experiment: Study 6, uncontrolled open-label study in children under 2 years of age; assay type: in vivo, human
Experimental: Uncontrolled, open-label studies were conducted to assess monthly ammonia control and hyperammonemic crisis of RAVICTI® in pediatric patients with UCDs 2 months to less than 2 years of age (Study 4/4E, Study 5, and Study 6). Patients in Study 5 previously participated in Study 4/4E. A total of 17 pediatric patients with UCDs aged 2 months to less than 2 years participated in the studies.
A total of 10 pediatric patients with UCDs aged 2 months to less than 2 years participated in Study 6, of which 7 patients converted from sodium phenylbutyrate to RAVICTI®. The dosage of RAVICTI® was calculated to deliver the same amount of PBA as the sodium phenylbutyrate dosage the patients were taking when they entered the trial. Two patients were treatment naïve and received RAVICTI® dosage of 7.5 mL/m^2/day and 9.4 mL/m^2/day, respectively. One additional patient was gradually discontinued from intravenous sodium benzoate and sodium phenylacetate while RAVICTI® was initiated. The dosage of RAVICTI® after transition was 8.5 mL/m^2/day.
In Study 6, there were 9, 7 and 3 pediatric patients who completed 1, 3 and 6 months, respectively (mean and median exposure of 4 and 5 months, respectively).
Patients received a mean RAVICTI® dose of 8 mL/m^2/day (8.8 g/m^2/day), with doses ranging from 4.8 to 11.5 mL/m^2/day (5.3 to 12.6 g/m^2/day). Patients were dosed three times a day (n=6), four times a day (n=2), or five or more times a day (n=2).
The primary efficacy endpoint was successful transition to RAVICTI® within a period of 4 days followed by 3 days of observation for a total of 7 days, where successful transition was defined as no signs and symptoms of hyperammonemia and a venous ammonia value less than 100 micromol/L. Venous ammonia levels were monitored for up to 4 days during transition and on day 7. Nine patients successfully transitioned as defined by the primary endpoint. One additional patient developed hyperammonemia on day 3 of dosing and experienced surgical complications (bowel perforation and peritonitis) following jejunal tube placement on day 4. This patient developed hyperammonemic crisis on day 6, and subsequently died of sepsis from peritonitis unrelated to drug. Although two patients had day 7 ammonia values of 150 micromol/L and 111 micromol/L respectively, neither had associated signs and symptoms of hyperammonemia.
During the extension phase, venous ammonia levels were monitored monthly. Ammonia values across different laboratories were normalized (transformed) to a common normal pediatric range of 28 to 57 micromol/L for comparability. The mean normalized venous ammonia values in pediatric patients at month 1, 2, 3, 4, 5 and 6 were 67, 53, 78, 99, 56 and 61 micromol/L during treatment with RAVICTI®, respectively. Three patients reported a total of 7 hyperammonemic crises defined as having signs and symptoms consistent with hyperammonemia (such as frequent vomiting, nausea, headache, lethargy, irritability, combativeness, and/or somnolence) associated with high venous ammonia levels and requiring medical intervention. Hyperammonemic crises were precipitated by vomiting, upper respiratory tract infection, gastroenteritis, decreased caloric intake or had no identified precipitating event (3 events). There were three additional patients who had one venous ammonia level that exceeded 100 micromol/L which was not associated with a hyperammonemic crisis.

[4] = Study 6 extension phase, normalized to 28 to 57 micromol/L

O=C(CCCc1ccccc1)OCC(COC(=O)CCCc1ccccc1)OC(=O)CCCc1ccccc1 [HPN-100, benzenebutanoic acid, 1′,1″-(1,2,3-propanetriyl) ester]
Plasma PAA % Fluctuation ([1]; arithmetic mean): 2141%
Plasma PAA AUC0-24 ([1]; arithmetic mean): 1096 µg·h/mL
Plasma PAA CLss/F ([1]; arithmetic mean): 25538 mL/min
Plasma PAGN CLss/F ([1]; arithmetic mean): 10830 mL/min
Plasma PBA CLss/F ([1]; arithmetic mean): 22610 mL/min
Plasma PBA Cmin-ss ([1]; arithmetic mean): 750 ng/mL
Plasma PAA Cmax-ss ([1]; arithmetic mean (CV %)): 84700 ng/mL
Plasma PAA Cmin-ss ([1]; arithmetic mean (CV %)): 26100 ng/mL
Plasma PAGN Cmin-ss ([1]; arithmetic mean (CV %)): 19900 ng/mL
hydrolysis in vitro by pancreatic lipase-related protein [2]: hydrolyze
additional patients with one venous ammonia level exceeding 100 micromol/L not associated with a hyperammonemic crisis ([3]; Study 6): three
patients successfully transitioned (no signs and symptoms of hyperammonemia and venous ammonia less than 100 micromol/L) ([3]; Study 6, 10 patients 2 months to <2 years, 7 days): Nine
day 7 ammonia values of two individual patients ([3]; Study 6, no associated signs and symptoms of hyperammonemia, listed as RAVICTI®): 150 µmol/L and 111 µmol/L
total hyperammonemic crises ([3]; Study 6, reported by three patients): 7
mean normalized venous ammonia, month 1 [3, 4]: 67 µmol/L
mean normalized venous ammonia, month 2 [3, 4]: 53 µmol/L
mean normalized venous ammonia, month 3 [3, 4]: 78 µmol/L
mean normalized venous ammonia, month 4 [3, 4]: 99 µmol/L
mean normalized venous ammonia, month 5 [3, 4]: 56 µmol/L
mean normalized venous ammonia, month 6 [3, 4]: 61 µmol/L
